Results on 25 compounds are retold here after ChEMBL document CHEMBL5634129, “Design, synthesis, and structure-activity relationships of a novel class of quinazoline derivatives as coronavirus inhibitors” (Eur J Med Chem, 2023).

The source made the active and inactive calls. The rule behind the calls is not given here.

In general, EC50 refers to the concentration giving half of the maximal effect.

For data set [1], the system named is Human coronavirus OC43. Description: Antiviral activity against HCoV-OC43 infected in human H460 cells assessed as viral inhibition at early stage at 500 nM measured upto 12 hrs by Hoechst 33342 staining based analysis. The data set is classed as functional, organism-based. Conditions: NCI-H460.
Data set [2] concerns Human coronavirus OC43. Kind of data set: Antiviral activity against HCoV-OC43 infected in human NCI-H460 cells treated for 72 hrs by CPE inhibition assay. Format: functional, organism-based. Conditions: Betacoronavirus 1, NCI-H460, 72 h.
Data set [3] concerns Human coronavirus OC43. Kind of data set: Antiviral activity against HCoV-OC43 infected in human H460 cells assessed as decrease in viral nucleocapsid protein level at 2 uM by Hoechst 33342 staining based analysis. The data set is classed as functional, organism-based. The following applies: NCI-H460.
Data set [4] is described as follows: Cytotoxicity in human NCI-H460 cells infected with HCoV-OC43 treated for 72 hrs by CPE inhibition assay. Conditions: read-out: TC50. The data set is classed as toxicity, cell-based.
A short description of data set [5]: Selectivity index, ratio of TC50 for human NCI-H460 cells infected with HCoV-OC43 to EC50 for HCoV-OC43 infected in human NCI-H460 cells. The data set is classed as toxicity, cell-based. Conditions: read-out: Selectivity Index.
Data set [6] concerns Human coronavirus OC43. Kind of data set: Antiviral activity against HCoV-OC43 infected in human H460 cells assessed as decrease in viral nucleocapsid protein level at 10 uM by Hoechst 33342 staining based analysis relative to control. Format: functional, NCI-H460. Also noted: scale not given: the % may be the effect or the level left.
The subject of data set [7] is Human coronavirus OC43. Kind of data set: Antiviral activity against HCoV-OC43 infected in human H460 cells assessed as viral inhibition at early stage at 10 uM measured upto 12 hrs by Hoechst 33342 staining based analysis. Format: functional, organism-based. The following applies: NCI-H460.
The test system of data set [8] is Human coronavirus OC43. Description: Antiviral activity against HCoV-OC43 infected in human H460 cells assessed as decrease in viral nucleocapsid protein level by Hoechst 33342 staining based analysis. Format: functional, organism-based. The following applies: NCI-H460, dose 0.1-10 µM.
Data set [9] relates to Human coronavirus OC43. Kind of data set: Antiviral activity against HCoV-OC43 infected in human H460 cells assessed as decrease in viral nucleocapsid protein mRNA level by qRT-PCR analysis. Format: functional, organism-based. The following applies: NCI-H460, dose 0.1-10 µM. A general note: Quantitative PCR measures a nucleic acid by following its amplification.

On to `CCC(CC)COC(=O)[C@H](C)N[P@](=O)(OC[C@H]1O[C@@](C#N)(c2ccc3c(N)ncnn23)[C@H](O)[C@@H]1O)Oc1ccccc1` [REMDESIVIR], for which the inhibition result with Human coronavirus OC43 [1] was “Active”. Also, the EC50 in the data set with Human coronavirus OC43 [2] was 0.14 µM. Moreover, the outcome in the data set on Human coronavirus OC43 [3] was Active. In addition, the CC50 at 72 h in data set [4] was greater than 20 µM. In addition, in [5], the selectivity ratio is greater than 143.

In the case of `CCOc1ccc2nc(NCC3CCCO3)nc(Nc3cc(C(F)(F)F)cc(C(F)(F)F)c3)c2c1` (configuration not stated), the Activity in the data set with Human coronavirus OC43 [6] was 100%; in the data set on Human coronavirus OC43 [8] it was “Dose-Dependent Effect”; in the data set with Human coronavirus OC43 [9] it was “Dose-Dependent Effect”. Also, it took 0.09 µM to reach a half-maximal effect in the data set with Human coronavirus OC43 [2] (EC50). Also, the inhibition result in the data set with Human coronavirus OC43 [7] is “Active”. Also, the CC50 at 72 h in data set [4] amounted to 96.2 µM. Also, the selectivity ratio in data set [5] came out at 1070.

As to `CCOc1ccc2nc(NCCN3CCOCC3)nc(Nc3cc(C(F)(F)F)cc(C(F)(F)F)c3)c2c1`, the Activity is 100% with Human coronavirus OC43 [6], “Dose-Dependent Effect” in the data set on Human coronavirus OC43 [8] and “Dose-Dependent Effect” in the data set on Human coronavirus OC43 [9]. This compound also displayed an EC50 in the data set with Human coronavirus OC43 [2] of 0.12 µM. The CC50 at 72 h in [4] was determined as 5.77 µM. Also, in [5], the selectivity ratio is 48.1.

Compound `CCOc1ccc2nc(NC(Cc3ccccc3)C(=O)OC(C)(C)C)nc(Nc3cc(C(F)(F)F)cc(C(F)(F)F)c3)c2c1` (configuration not stated) displayed an EC50 with Human coronavirus OC43 [2] of 18.5 µM. The CC50 at 72 h in data set [4] turned out to be 38.5 µM. Also, the selectivity ratio in data set [5] is 2.1.

In the case of `CCCOc1ccc2ncnc(Nc3cc(C(F)(F)F)cc(C(F)(F)F)c3)c2c1`, the EC50 with Human coronavirus OC43 [2] came to 0.37 µM. The CC50 at 72 h in data set [4] was 388 µM. The selectivity ratio in [5] was found to be 1050.

Turning to `COC(=O)c1cc(Cl)cc(Nc2ncnc3ccc(OC)cc23)c1`, a half-maximal effect in the data set with Human coronavirus OC43 [2] (EC50) was put at 1.43 µM. For the same compound, the CC50 at 72 h in [4] was 129 µM. Besides, the selectivity ratio in data set [5] is 90.4.

Consider `CCOc1ccc2nc(NCCN3CCN(C)CC3)nc(Nc3cc(C(F)(F)F)cc(C(F)(F)F)c3)c2c1`, for which the EC50 with Human coronavirus OC43 [2] turned out to be 0.53 µM. Further, the CC50 at 72 h in [4] came out at 5.77 µM. Moreover, the selectivity ratio in data set [5] amounted to 10.9.

Consider `CCOc1ccc2nc(NC(C)C)nc(Nc3cc(C(F)(F)F)cc(C(F)(F)F)c3)c2c1`, for which it took 1.43 µM to reach a half-maximal effect in the data set with Human coronavirus OC43 [2] (EC50). In addition, the CC50 at 72 h in data set [4] stood at 8.9 µM. Also, the selectivity ratio in data set [5] turned out to be 6.2.

On to `CCOc1ccc2nc(NCCOC)nc(Nc3cc(C(F)(F)F)cc(C(F)(F)F)c3)c2c1`, for which the Activity is 100% with Human coronavirus OC43 [6], “Dose-Dependent Effect” in the data set with Human coronavirus OC43 [8] and “Dose-Dependent Effect” with Human coronavirus OC43 [9]. In the data set with Human coronavirus OC43 [2], a half-maximal response (EC50) required 0.1 µM. In addition, the CC50 at 72 h in data set [4] was 5.77 µM. Moreover, the selectivity ratio in [5] worked out at 57.7.

In the data set on Human coronavirus OC43 [2], `O=[N+]([O-])c1ccc2ncnc(Nc3cc(C(F)(F)F)cc(C(F)(F)F)c3)c2c1` gave an EC50 of 0.29 µM. Besides, the CC50 at 72 h in data set [4] stood at 3.56 µM. Further, the selectivity ratio in data set [5] was 12.3.

In the data set on Human coronavirus OC43 [2], `FC(F)(F)c1cc(Nc2ncnc3ncccc23)cc(C(F)(F)F)c1` gave an EC50 of 5.14 µM. The CC50 at 72 h in data set [4] came out at 32.1 µM. Besides, the selectivity ratio in data set [5] turned out to be 6.2.

Turning to `COc1ccc2ncnc(Oc3cc(C(F)(F)F)cc(C(F)(F)F)c3)c2c1`, the EC50 in the data set on Human coronavirus OC43 [2] is greater than 55.6 µM. Besides, in [4], the CC50 at 72 h was 240 µM. Moreover, in data set [5], the selectivity ratio came out at 240.

Turning to `FC(F)(F)c1cc(Nc2ncnc3ccccc23)cc(C(F)(F)F)c1`, in the data set with Human coronavirus OC43 [2], the EC50 was determined as 1.43 µM. Also, the CC50 at 72 h in data set [4] was found to be 17.2 µM. For the same compound, the selectivity ratio in data set [5] is 12.1.

In turn, `Fc1ccc2ncnc(Nc3cc(C(F)(F)F)cc(C(F)(F)F)c3)c2c1` returned an EC50 in the data set with Human coronavirus OC43 [2] of 0.88 µM. In [4], the CC50 at 72 h worked out at 12.8 µM. The selectivity ratio in data set [5] was determined as 14.6.

For the compound `FC(F)(F)c1cc(Nc2ncnc3cnc(Cl)cc23)cc(C(F)(F)F)c1`, the EC50 with Human coronavirus OC43 [2] was found to be 0.15 µM. The CC50 at 72 h in data set [4] stood at 1.71 µM. For the same compound, in data set [5], the selectivity ratio amounted to 11.4.

Regarding `FC(F)(F)c1cc(Nc2ncnc3cc(Cl)ccc23)cc(C(F)(F)F)c1`, in the data set with Human coronavirus OC43 [2], the EC50 is 0.47 µM. In addition, in [4], the CC50 at 72 h worked out at 1.43 µM. Besides, in data set [5], the selectivity ratio stood at 3.

As to `COC(=O)c1cc(Nc2ncnc3ccc(OC)cc23)cc(C(F)(F)F)c1`, the EC50 with Human coronavirus OC43 [2] was determined as 0.48 µM. Also, the CC50 at 72 h in data set [4] was 26.7 µM. In addition, in data set [5], the selectivity ratio came to 55.6.

For the compound `FC(F)(F)c1cc(Nc2ncnc3ccc(Cl)cc23)cc(C(F)(F)F)c1`, the EC50 in the data set with Human coronavirus OC43 [2] was 0.16 µM. In addition, the CC50 at 72 h in data set [4] amounted to 1.71 µM. Moreover, the selectivity ratio in data set [5] turned out to be 10.8.

As to `FC(F)(F)c1cc(Nc2ncnc3ccc(C(F)(F)F)cc23)cc(C(F)(F)F)c1`, the EC50 in the data set on Human coronavirus OC43 [2] worked out at 0.23 µM. Further, the CC50 at 72 h in [4] was 4.28 µM. Moreover, the selectivity ratio in [5] came to 18.6.

`COc1ccc2ncnc(Sc3cc(C(F)(F)F)cc(C(F)(F)F)c3)c2c1`: in the data set with Human coronavirus OC43 [2], the EC50 was greater than 55.6 µM. Moreover, the CC50 at 72 h in data set [4] came out at 96.2 µM. Moreover, the selectivity ratio in [5] worked out at 96.2.

For the compound `CCCNc1nc(Nc2cc(C(F)(F)F)cc(C(F)(F)F)c2)c2cc(OCC)ccc2n1`, in the data set with Human coronavirus OC43 [2], the EC50 amounted to 0.69 µM. In addition, the CC50 at 72 h in data set [4] was determined as 6.17 µM. Further, the selectivity ratio in [5] is 9.

The compound `FC(F)(F)c1cc(Nc2ncnc3ccc(I)cc23)cc(C(F)(F)F)c1` gave an EC50 in the data set with Human coronavirus OC43 [2] of 0.48 µM. In addition, in data set [4], the CC50 at 72 h worked out at 7.95 µM. Also, in data set [5], the selectivity ratio is 16.6.

Compound `COc1ccc2ncnc(Nc3cc(F)cc(OC(F)(F)F)c3)c2c1` showed an EC50 in the data set on Human coronavirus OC43 [2] of 9.98 µM. In addition, the CC50 at 72 h in data set [4] was found to be 289 µM. Besides, the selectivity ratio in data set [5] was found to be 28.9.

Turning to `CCOc1ccc2nc(NCC(F)(F)F)nc(Nc3cc(C(F)(F)F)cc(C(F)(F)F)c3)c2c1`, in the data set on Human coronavirus OC43 [2], the EC50 is 2.06 µM. Also, the CC50 at 72 h in [4] was 32.1 µM. Further, the selectivity ratio in [5] is 15.6.

As for `O=[N+]([O-])c1cccc(Nc2ncnc3ccc(Cl)cc23)c1`, in the data set on Human coronavirus OC43 [2], the EC50 was determined as 4.28 µM. In [4], the CC50 at 72 h is 51.7 µM. For the same compound, the selectivity ratio in [5] stood at 12.1.
